{
  "source": "PubChem BioAssay AID1259410",
  "about": "(Chemical Carcinogenesis Research Information System (CCRIS), 2018)",
  "origin": "cited, not measured here",
  "test_system": "rodent tumor promotion studies, tumor incidence",
  "assay": "CCRIS tumor promotion studies",
  "from_the_text": "The CCRIS database contains chemical records with carcinogenicity, mutagenicity, tumor promotion, and tumor inhibition test results. It was developed by the National Cancer Institute (NCI). Data are derived from studies cited in primary journals, current awareness tools, NCI reports, and other sources. Test results have been reviewed by experts in carcinogenesis and mutagenesis.\nCCRIS provides historical information from the years 1985 - 2011. It is no longer updated.\nThis is an archive assay for CCRIS tumor promotion studies.",
  "data": [
    {"molecule": "CC(C)(Oc1ccc(C2CCCc3ccccc32)cc1)C(=O)O", "note": "(stereo not given)", "values": [
      {"measurement": "outcome", "setting": "Carcinogen: DIETHYLNITROSAMINE, 55-18-5, 2-ACETYLAMINOFLUORENE, 6292-55-3, CARBON TETRACHLORIDE, 56-23-5, Carcinogen: DIETHYLNITROSAMINE, 55-18-5, 2-ACETYLAMINOFLUORENE, 6292-55-3, CARBON TETRACHLORIDE, 56-23-5, Doses [Carcinogen]: 200 MG/KG ONCE FOLLOWED 2 WK LATER BY 0.03% 2-ACETYLAMINOFLUORENE IN DIET FOR 2 WK PLUS 2 ML/KG CARBON TETRACHLORIDE IN, Doses [Promoter]: 0.1% IN DIET STARTING 1 WK POST 2-ACETYLAMINOFLUORENE AND CONTINUED FOR 6 MO (STUDY DURATION: 7 MO), Route [Carcinogen]: INTRAPERITONEAL, ORAL, INTRAGASTRIC, Route [Carcinogen]: INTRAPERITONEAL, ORAL, INTRAGASTRIC, Route [Promoter]: ORAL, Species: RAT, Strain/Sex: WISTAR/MALE", "result": "liver: hepatocellular carcinoma"}
    ]},
    {"molecule": "O=C([O-])/C=C/C(=O)[O-].[Fe+2]", "values": [
      {"measurement": "outcome", "setting": "Carcinogen: DIMETHYLHYDRAZINE, 540-73-8, Doses [Carcinogen]: 20 MG/KG 1/WK FOR 10 WK, Doses [Promoter]: 0, 3.5% IN DIET FOR 10 WK BEGINNING POST CARCINOGEN TREATMENT (STUDY DURATION: 20 WK), Route [Carcinogen]: SUBCUTANEOUS, Route [Promoter]: ORAL, Species: MOUSE, Strain/Sex: NMRI/MALE", "result": "colon/rectum: tumor"},
      {"measurement": "outcome", "setting": "Carcinogen: DIMETHYLHYDRAZINE, 540-73-8, Doses [Carcinogen]: 20 MG/KG 1/WK FOR 10 WK, Doses [Promoter]: 0, 3.5% IN DIET FOR 10 WK CONCURRENTLY WITH CARCINOGEN TREATMENT (STUDY DURATION: 20 WK), Route [Carcinogen]: SUBCUTANEOUS, Route [Promoter]: ORAL, Species: MOUSE, Strain/Sex: NMRI/MALE", "result": "colon/rectum: tumor"}
    ]},
    {"molecule": "C[C@]12CC[C@H](O)CC1=CC[C@@H]1[C@@H]2CC[C@]2(C)C(=O)CC[C@@H]12", "values": [
      {"measurement": "outcome", "setting": "Carcinogen: N-METHYL-N'-NITRO-N-NITROSOGUANIDINE, 70-25-7, Doses [Carcinogen]: 35 PPM IN WATER FOR 30 MIN ONCE, Doses [Promoter]: 0, 111, 222, 444, 888 PPM IN DIET FOR 6 MO BEGINNING 3 MO POST CARCINOGEN TREATMENT (STUDY DURATION: 9 MO), Doses [Promoter]: 0, 111, 222, 444, 888 PPM IN DIET FOR 6 MO BEGINNING 3 MO POST CARCINOGEN TREATMENT (STUDY DURATION: 9 MO), Route [Carcinogen]: IMMERSION, Route [Promoter]: ORAL, Species: FISH, Strain/Sex: RAINBOW TROUT/MALE,FEMALE", "result": "liver: tumor"},
      {"measurement": "outcome", "setting": "Carcinogen: N-METHYL-N'-NITRO-N-NITROSOGUANIDINE, 70-25-7, Doses [Carcinogen]: 35 PPM IN WATER FOR 30 MIN ONCE, Doses [Promoter]: 0, 111, 888 PPM IN DIET FOR 6 MO BEGINNING 3 MO POST CARCINOGEN TREATMENT (STUDY DURATION: 9 MO), Doses [Promoter]: 0, 111, 888 PPM IN DIET FOR 6 MO BEGINNING 3 MO POST CARCINOGEN TREATMENT (STUDY DURATION: 9 MO), Route [Carcinogen]: IMMERSION, Route [Promoter]: ORAL, Species: FISH, Strain/Sex: RAINBOW TROUT/MALE,FEMALE", "result": "kidney: tumor"},
      {"measurement": "outcome", "setting": "Carcinogen: N-NITROSOMORPHOLINE, 59-89-2, Doses [Carcinogen]: 120 MG/L IN DRINKING WATER FOR 7 WK, Doses [Promoter]: 0, 0.6% IN THE DIET FOR DURATION OF STUDY BEGINNING 1 WK POST CARCINOGEN TREATMENT (STUDY DURATION: 84 WK), Route [Carcinogen]: ORAL, Route [Promoter]: ORAL, Species: RAT, Strain/Sex: SPRAGUE-DAWLEY/FEMALE", "result": "liver: hepatocellular carcinoma"},
      {"measurement": "outcome", "setting": "Carcinogen: N-NITROSOMORPHOLINE, 59-89-2, Doses [Carcinogen]: 120 MG/L IN DRINKING WATER FOR 7 WK, Doses [Promoter]: 0, 0.6% IN THE DIET FOR DURATION OF STUDY BEGINNING 1 WK POST CARCINOGEN TREATMENT (STUDY DURATION: 84 WK), Route [Carcinogen]: ORAL, Route [Promoter]: ORAL, Species: RAT, Strain/Sex: SPRAGUE-DAWLEY/MALE", "result": "liver: hepatocellular adenoma"},
      {"measurement": "outcome", "setting": "Doses [Carcinogen]: 10 PPB IN WATER FOR 30 MIN, Doses [Promoter]: 0, 444 PPM IN DIET FOR 6 MO BEGINNING 3 MO POST CARCINOGEN TREATMENT (STUDY DURATION: 9 MO), Route [Carcinogen]: IMMERSION, Route [Promoter]: ORAL, Species: FISH, Strain/Sex: RAINBOW TROUT/MALE, FEMALE", "result": "liver: tumor"},
      {"measurement": "outcome", "setting": "Doses [Carcinogen]: 10 PPB IN WATER, Doses [Promoter]: 0, 222, 444, 888 PPM IN DIET 1/D 5 D/WK FOR 30 WK BEGINNING 16 WK POST CARCINOGEN TREATMENT (STUDY DURATION: 46 WK), Doses [Promoter]: 0, 222, 444, 888 PPM IN DIET 1/D 5 D/WK FOR 30 WK BEGINNING 16 WK POST CARCINOGEN TREATMENT (STUDY DURATION: 46 WK), Route [Carcinogen]: IMMERSION, Route [Promoter]: ORAL, Species: FISH, Strain/Sex: RAINBOW TROUT/MALE, FEMALE", "result": "liver: tumor"}
    ]},
    {"molecule": "CC(C)=CCC/C(C)=C/CC/C(C)=C/CC/C=C(\\C)CC/C=C(\\C)CCC=C(C)C", "values": [
      {"measurement": "outcome", "setting": "Carcinogen: 7,12-DIMETHYLBENZ(A)ANTHRACENE, Doses [Carcinogen]: TOP, Route [Carcinogen]: DERMAL, Route [Promoter]: DERMAL, Species: MOUSE, Strain/Sex: MALE", "result": "integumentary system (skin)"}
    ]}
  ]
}
